Legend:
[1] = target: T1, MLLT1 (Homo sapiens, UniProt Q03111); assay: MLLT1 degradation assay in MV4-11 cells (JESS, 24 h); type: cell-based; set-up: endogenous in cells; host or cells: MV4-11 (ATCC CRL-9591); conditions: vs DMSO control
T1 sequence (Q03111 1-559): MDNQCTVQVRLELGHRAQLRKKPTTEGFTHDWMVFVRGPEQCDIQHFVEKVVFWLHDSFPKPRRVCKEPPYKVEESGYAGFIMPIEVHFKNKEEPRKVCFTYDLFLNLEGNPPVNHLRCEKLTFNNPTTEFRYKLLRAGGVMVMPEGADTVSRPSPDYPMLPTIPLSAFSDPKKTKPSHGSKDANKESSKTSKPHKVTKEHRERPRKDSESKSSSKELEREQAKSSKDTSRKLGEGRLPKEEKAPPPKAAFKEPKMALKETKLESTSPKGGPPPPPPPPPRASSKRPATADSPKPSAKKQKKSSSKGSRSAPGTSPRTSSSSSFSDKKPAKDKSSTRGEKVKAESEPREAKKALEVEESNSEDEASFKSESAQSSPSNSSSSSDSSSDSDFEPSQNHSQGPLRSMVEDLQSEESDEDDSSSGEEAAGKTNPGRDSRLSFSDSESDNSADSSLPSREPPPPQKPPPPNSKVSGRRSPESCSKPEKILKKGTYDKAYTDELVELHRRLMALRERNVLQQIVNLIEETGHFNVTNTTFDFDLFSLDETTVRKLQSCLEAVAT
In short: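 MV4-11 cells treated at 1000, 100 and 10 nM (0.1% DMSO) for 24 h at 37° C; lysates (4 ug protein) run on JESS capillary immunoassay with MLLT1 and GAPDH antibodies. Peak areas give % degradation versus DMSO, binned A (≥75%) to D (<25%).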

[2] = target: T2, MLLT3 (Mus musculus, UniProt A2AM29); assay: MLLT3 degradation assay in NIH/3T3 cells (JESS, 5 h); type: cell-based
T2 construct: endogenous in cells; host or cells: NIH/3T3 (ATCC CRL-1658)
T2 sequence (A2AM29 1-569): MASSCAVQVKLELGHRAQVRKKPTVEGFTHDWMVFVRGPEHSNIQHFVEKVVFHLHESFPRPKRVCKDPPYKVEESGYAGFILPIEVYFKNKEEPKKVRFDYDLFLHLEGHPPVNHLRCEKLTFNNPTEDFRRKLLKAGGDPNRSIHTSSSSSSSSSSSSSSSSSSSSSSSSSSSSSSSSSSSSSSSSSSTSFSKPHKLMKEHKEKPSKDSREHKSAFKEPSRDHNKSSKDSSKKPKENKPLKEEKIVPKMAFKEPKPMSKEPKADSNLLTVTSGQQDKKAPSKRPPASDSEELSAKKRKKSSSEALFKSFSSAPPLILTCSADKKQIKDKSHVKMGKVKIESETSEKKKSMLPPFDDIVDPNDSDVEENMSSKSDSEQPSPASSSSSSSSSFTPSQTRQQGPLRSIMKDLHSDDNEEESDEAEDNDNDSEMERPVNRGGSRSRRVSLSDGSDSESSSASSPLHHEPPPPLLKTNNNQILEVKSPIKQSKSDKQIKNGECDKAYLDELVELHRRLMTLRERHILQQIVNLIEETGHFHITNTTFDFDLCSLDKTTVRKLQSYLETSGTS
Experimental: MLLT3 degradation efficacy of compounds was tested in an automated chemiluminescent detection system (JESS, Cat #004-650). NIH/3T3 (#CRL-1658, ATCC) were seeded at a density of 0.5 million cells/well in a cell culture treated 6-well cell culture plate in 2 mL of complete medium (DMEM+10% FBS+1× Penicillin-Streptomycin) and incubated at 37° C., 5% CO2. The next day, 10 mM DMSO stocks were prepared, and cells were treated with eight concentrations of test compounds, starting from 100 nM, 5-fold dilution, at a final DMSO concentration of 0.1% and incubated for 5 h at 37° C., 5% CO2. Post incubation, cells were washed with HBSS and lysed in 70 μL of RIPA buffer supplemented with Protease inhibitors (sc-24948; Santa Cruz). Later, protein estimation was done using BCA protein assay kit (23228; Pierce). 4 gg protein lysate (4 μL of 1 μg/μL lysate) was loaded into each well of the JESS cartridge (SM-W004; Bio-techne) and the JESS run was performed using 1:200 dilution of anti-mouse MLLT3 antibody (#47577; CST) and 1:800 dilution of anti-human GAPDH antibody (2118; Cell signaling technology) with anti-rabbit secondary detection module (DM-001; Bio-Techne). Post run, data was analysed using “Compass for SW” software for chemiluminescent detection. Peak fit was done using “dropped lines” method. […]

[3] = test system: human AML; assay: in vivo mouse model of human AML (procedure of Example 112); conditions: oral administration, FIG. 1

Question: How did the “MLLT1% Degradation @ 0.01 μM” value ([1]; 0.01 μM) turn out when `Cc1nn(CCCCCCCC#Cc2cccc3c2CN(C2CCC(=O)NC2=O)C3=O)c2cc(C(=O)Nc3cc4[nH]c([C@H]5CCCN5C)cc4cn3)ccc12` (mixture of isomers) [Example 1, 1-(9-(2-(2,6-dioxopiperidin-3-yl)-1-oxoisoindolin-4-yl)non-8-yn-1-yl)-3-methyl-N-(2-((R)-1-methylpyrrolidin-2-yl)-1H-pyrrolo[3,2-c]pyridin-6-yl)-1H-indazole-6-carboxamide] was run?
Answer: The value was “A (Category A: A≥75% degradation)”.

Question: What about the “MLLT1% Degradation @ 0.1 μM” value ([1]; 0.1 μM) of the same compound?
Answer: The value was “A (Category A: A≥75% degradation)”.

Question: What about the “MLLT1% Degradation @ 1 μM” value ([1]; 1 μM) of the same compound?
Answer: The value was “A (Category A: A≥75% degradation)”.

Question: What about the DC50 [2] of the same compound?
Answer: The DC50 was 1.6 nM.

Question: What about the Dmax ([2]; NIH3T3, maximum % degradation observed) of the same compound?
Answer: The Dmax was 85%.

Question: And the tumour growth [3]?
Answer: Its tumour growth is “reduction in tumour growth”.

From patent US20260199484A1, “PROTAC DEGRADERS OF MLLT1 AND/OR MLLT3” (DARK BLUE THERAPEUTICS LTD, priority 2024, published 2026)
